Experimental data as given in a melting point compilation (Tetko et al.).

Compound	melting point
CCc1cc(N)on1	49 to 51 °C
COC(=O)CCNC(=O)c1ccc(N)cc1	99 to 101 °C
Cc1cc(C(=O)CCl)c(C)n1-c1ccc(OC(F)F)cc1	83 to 87 °C
O=Cc1sc(N2CCCCC2)nc1Cl	89 to 91 °C
CCn1c(C)cc(C(=O)CCl)c1C	89 to 91 °C
COc1ccc(NS(C)(=O)=O)c(N)c1	144 to 146 °C
N#Cc1cccc(Oc2ccc(N)cn2)c1	104 to 106 °C
O=C(O)CCCNC(=O)c1ccsc1	235 to 237 °C
NCC(O)COc1ccc(C(F)(F)F)cc1 (configuration not stated)	98 to 100 °C
Fc1ccccc1-c1c[nH]c(C2CCCN2)n1 (configuration not stated)	111 to 113 °C
CN(C)c1ccc(Cn2nccc2N)cc1	60 to 62 °C
O=c1[nH]c2cc(Br)cc(Cl)c2o1	189 to 191 °C
O=CNc1cc([N+](=O)[O-])ccc1Cl	183 to 185 °C
CC(C)(C)OC(=O)NCC1CCCCN1 (configuration not stated)	93 to 95 °C
CC(CC(=O)O)c1cccc(F)c1 (configuration not stated)	33 to 35 °C
C=CCn1c(N)c(C#N)sc1=S	174 to 176 °C
COC(=O)c1ccc(C)c(NC(=O)OCC(F)(F)F)c1	121 to 123 °C
CC(C)c1nc(C(=O)O)nn1-c1cccc(F)c1	93 to 95 °C
O=C(O)CC1c2ccccc2Oc2ccccc21	153 to 155 °C
O=c1[nH]c(=O)c2cc(S(=O)(=O)Cl)ccc2[nH]1	272 to 274 °C
CN(CC(=O)O)S(N)(=O)=O	94 to 96 °C
NC(=O)COc1ccc(/C=C/C(=O)O)cc1	295 to 297 °C
CC(C)(C)c1ccc(-c2csc(N)n2)cc1	127 to 129 °C
O=C(NCC(F)(F)F)c1cccc(S(=O)(=O)Cl)c1	83 to 85 °C

Compound	melting point
O=C(O)CCCC(=O)Nc1cccnc1N1CCCC1	142 to 144 °C
O=Cc1ccc(OCc2ccncc2)cc1	112 to 114 °C
Cc1nc(CSc2ccc(C(=O)O)cc2)cs1	87 to 90 °C
Nc1ccnn1Cc1cccnc1	86 to 88 °C
Cc1cc(C)c2nc(NN)cc(C)c2c1	113 to 115 °C
Cc1ccc(S(=O)(=O)CCC(=O)O)cc1	108 to 110 °C
CC(Cl)C(=O)NCC(=O)c1ccccc1 (configuration not stated)	86 to 88 °C
Cc1[nH]c2ccc(C#N)cc2c1C	145 to 147 °C
Cc1cc(=O)[nH]c(-c2cccc(N)c2)n1	212 to 214 °C
CC1C(=O)NC(=O)N1c1ccc(F)cc1 (configuration not stated)	187 to 189 °C
CC(C)(C)OC(=O)Nc1ccc(CC(=O)N2CCNCC2)cc1	169 to 171 °C
Nc1ccc2c(c1)N1CCN=C1S2	201 to 204 °C
COc1ccccc1NS(=O)(=O)c1ccc2oc(S)nc2c1	109 to 113 °C
CCN(CC)C1=NC(=O)C(CC(=O)Nc2cccc(C(=O)O)c2)S1 (configuration not stated)	236 to 238 °C
Oc1ccc(OCc2cccnc2)cc1	157 to 159 °C
COc1ccc(-c2nc(C=O)cs2)cc1	97 to 99 °C
Nc1ncc(Cc2c(Cl)cccc2Cl)s1	139 to 141 °C
O=C(O)C(=Cc1ccc(Br)cc1)c1cccs1	199 to 200 °C
Cc1c(F)ccc2c1NC(=O)C2=O	139 to 141 °C
Cn1ccnc1C(=O)c1ccccc1Cl	99 to 101 °C
CC(C(=O)O)c1cccnc1 (configuration not stated)	85 to 87 °C
CC1(C)C(=O)NCCN1Cc1ccccc1	212 to 214 °C
Cc1ccc(C(N)=O)n1C	152 to 154 °C
CC(C)(C)OC(=O)N1CCN(S(=O)(=O)Cl)CC1	148 to 150 °C

Compound	melting point
CC(C)(C)OC(=O)Nc1cc(C(=O)O)ccc1F	177 to 179 °C
C=Cc1nc2sc3c(c2c(=O)[nH]1)CCCC3	209 to 211 °C
CC1CN(Cc2ccc(C(=O)O)cc2)CCO1 (configuration not stated)	186 to 188 °C
NC(C(=O)O)c1ccccc1F (configuration not stated)	229 to 231 °C
Cc1[nH]c(-c2ccccn2)nc(=NN)c1C	182 to 184 °C
O=C(O)CCOc1ccc2ccccc2c1	66 to 68 °C
O=C(O)c1cccc(-c2ncn[nH]2)c1	239 to 241 °C
O=C(O)c1csc(C(=O)O)c1	279 to 281 °C
Cc1ccc(SC(C(=O)O)c2ccccc2)c(C)c1 (configuration not stated)	130 to 132 °C
CNS(=O)(=O)Cc1cc(C)on1	69 to 71 °C
COCCNC(=O)NC(=O)CCl	103 to 105 °C
O=C(c1ccc(F)cc1Cl)N1CCNCC1	75 to 77 °C
C=CC(=O)NC(=O)NC12CC3CC(CC(C3)C1)C2	211 to 213 °C
Nc1cccc(CN2CCC(CO)CC2)c1	89 to 91 °C
CCCCCc1sc(N)c(C(N)=O)c1C	129 to 131 °C
CC(=O)c1cccc(S(N)(=O)=O)c1	143 to 145 °C
CN1C(=O)N(CC(=O)O)C(=O)C12CCCCC2	220 to 222 °C
NC(=S)c1cccnc1N	124 to 126 °C
O=C1CCCc2cc(C(=O)CCl)ccc2N1	154 to 156 °C
CC1(c2ccccc2F)NC(=O)NC1=O (configuration not stated)	214 to 216 °C
Nc1cc(F)c(Br)cc1[N+](=O)[O-]	166 to 168 °C
CC(C)C(Br)C(=O)N1CCC(C(N)=O)CC1 (configuration not stated)	172 to 174 °C
CC(C)(CC(=O)O)NC(=O)OC(C)(C)C	89 to 91 °C
CC(=O)NCCNC(=O)CCC(=O)O	166 to 168 °C
